Assays:
[1] = molecular target: T1, neuronal GABA transporters (Mus musculus, UniProt P31648); assay: Tonic current induced by blockade of neuronal GABA transporters in dentate granule cells; assay type: cell-based; conditions: P>0.4
T1 construct: from tissue; host or cells: mouse hippocampal slices, dentate granule cells
Method: FIG. 7, panel a, contains typical traces showing tonic current induced by blockade of neuronal GABA transporters with NO-711 (1-[2-[[(Diphenylmethylene)imino]oxy]ethyl]-1,2,5,6-tetrahydro-3-pyridinecarboxylic acid hydrochloride hydrochloride). Large mIPSCs were truncated to better illustrate the tonic current.
(§1) Mice were anesthetized with 2.5% Avertin. After decapitation, brains were rapidly dissected out and placed in ice-cold cutting solution containing: 79 mM NaCl, 80 mM sucrose, 26 mM NaHCO3, 10 mM glucose, 2.5 mM KCl, 1.25 mM NaH2PO4, 7 mM MgSO4, and 0.5 mM CaCl2 for tonic current recordings. […]
(§2) Whole-cell voltage clamp recordings were performed on dentate gyrus granule cells using a pipette solution containing: 135 mM CsCl, 5 mM Na-phosphocreatine, 10 mM HEPES, 5 mM EGTA, 4 mM MgATP, 5 mM QX-314, and 0.5 mM Na2GTP (pH 7.3 adjusted with CsOH, 280-290 mOsm/L). […] Data was acquired using pClamp 9 software (Molecular Devices; sampled at 10 kHz and filtered at 1 kHz), and analyzed with Clampfit 9.0 software (Molecular Devices). Field excitatory postsynaptic potentials (fEPSPs) were recorded with glass electrodes filled with 1 M NaCl and 25 mM HEPES (pH 7.3), and were evoked every 20 seconds with a parallel bipolar tungsten electrode (MicroProbes, USA), which was placed at medial perforant path in the dentate gyrus. […]

human GAT-1 polypeptide = human GAT-1 polypeptide (Homo sapiens, UniProt P30531); conditions: cited from earlier work
Chain of human GAT-1 polypeptide (P30531 whole entry): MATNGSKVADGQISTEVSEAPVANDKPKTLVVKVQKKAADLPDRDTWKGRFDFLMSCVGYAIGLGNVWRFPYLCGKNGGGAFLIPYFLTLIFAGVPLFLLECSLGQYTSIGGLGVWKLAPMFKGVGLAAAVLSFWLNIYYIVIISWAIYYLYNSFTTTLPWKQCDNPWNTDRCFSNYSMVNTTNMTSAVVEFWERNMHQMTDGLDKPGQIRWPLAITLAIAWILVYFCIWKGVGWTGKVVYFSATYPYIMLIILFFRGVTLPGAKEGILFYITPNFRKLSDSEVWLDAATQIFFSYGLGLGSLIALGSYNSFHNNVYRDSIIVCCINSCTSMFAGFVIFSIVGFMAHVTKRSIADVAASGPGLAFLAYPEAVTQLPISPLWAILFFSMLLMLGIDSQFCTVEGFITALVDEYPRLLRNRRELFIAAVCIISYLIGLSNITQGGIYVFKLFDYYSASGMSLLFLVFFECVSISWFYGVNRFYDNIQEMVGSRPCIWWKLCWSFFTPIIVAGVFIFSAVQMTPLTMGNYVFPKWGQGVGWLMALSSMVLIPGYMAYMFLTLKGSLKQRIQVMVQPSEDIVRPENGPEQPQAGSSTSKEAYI

human GAT-3 polypeptide = molecular target: T2, human GAT-3 polypeptide (Homo sapiens, UniProt P48066); conditions: cited from earlier work
T2 sequence (P48066 1-632): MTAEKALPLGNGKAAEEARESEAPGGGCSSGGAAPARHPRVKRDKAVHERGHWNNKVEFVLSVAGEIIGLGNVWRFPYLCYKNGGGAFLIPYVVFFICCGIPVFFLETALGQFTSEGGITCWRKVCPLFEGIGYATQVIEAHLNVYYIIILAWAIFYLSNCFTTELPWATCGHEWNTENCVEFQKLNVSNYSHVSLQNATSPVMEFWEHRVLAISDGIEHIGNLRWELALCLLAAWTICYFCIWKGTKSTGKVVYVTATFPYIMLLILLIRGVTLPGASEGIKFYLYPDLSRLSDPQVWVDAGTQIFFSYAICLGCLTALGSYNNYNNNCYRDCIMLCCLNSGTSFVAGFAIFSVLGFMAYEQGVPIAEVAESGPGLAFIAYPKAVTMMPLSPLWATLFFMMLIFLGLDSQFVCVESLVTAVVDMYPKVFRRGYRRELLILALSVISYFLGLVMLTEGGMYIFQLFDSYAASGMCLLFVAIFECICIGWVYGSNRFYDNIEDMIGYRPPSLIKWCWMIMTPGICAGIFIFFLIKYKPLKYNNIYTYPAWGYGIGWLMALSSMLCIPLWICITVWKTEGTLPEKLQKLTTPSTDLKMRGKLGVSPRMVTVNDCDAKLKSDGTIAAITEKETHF

human GAT-2 polypeptide = molecular target: T3, human GAT-2 polypeptide (Homo sapiens, UniProt Q9NSD5); conditions: cited from earlier work
T3 sequence (Q9NSD5 1-602): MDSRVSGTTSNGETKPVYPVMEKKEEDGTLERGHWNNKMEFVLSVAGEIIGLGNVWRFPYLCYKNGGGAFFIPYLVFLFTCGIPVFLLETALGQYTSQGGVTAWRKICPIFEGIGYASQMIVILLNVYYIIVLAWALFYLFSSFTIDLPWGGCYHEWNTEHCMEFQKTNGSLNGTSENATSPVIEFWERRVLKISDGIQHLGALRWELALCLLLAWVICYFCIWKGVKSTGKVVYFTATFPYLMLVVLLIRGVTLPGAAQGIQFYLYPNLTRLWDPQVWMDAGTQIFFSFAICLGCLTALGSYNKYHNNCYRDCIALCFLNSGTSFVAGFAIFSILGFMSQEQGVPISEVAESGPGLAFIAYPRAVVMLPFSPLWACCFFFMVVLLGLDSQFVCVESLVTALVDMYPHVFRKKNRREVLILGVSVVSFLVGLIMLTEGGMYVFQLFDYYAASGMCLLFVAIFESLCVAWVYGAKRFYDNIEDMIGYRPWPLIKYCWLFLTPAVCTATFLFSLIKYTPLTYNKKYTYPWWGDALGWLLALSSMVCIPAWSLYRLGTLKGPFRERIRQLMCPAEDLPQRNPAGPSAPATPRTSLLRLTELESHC

δ-GABAA-Rs = molecular target: T4, δ-GABAA-Rs (Mus musculus, UniProt P22933+P63137+Q9D6F4); assay: THIP-induced tonic current in dentate granule cells of hippocampal slices; assay type: cell-based; conditions: 2 μM, n=8
T4 construct: from tissue; host or cells: mouse hippocampal slices, dentate granule cells
T4 sequence (P22933 17-449 limits assumed): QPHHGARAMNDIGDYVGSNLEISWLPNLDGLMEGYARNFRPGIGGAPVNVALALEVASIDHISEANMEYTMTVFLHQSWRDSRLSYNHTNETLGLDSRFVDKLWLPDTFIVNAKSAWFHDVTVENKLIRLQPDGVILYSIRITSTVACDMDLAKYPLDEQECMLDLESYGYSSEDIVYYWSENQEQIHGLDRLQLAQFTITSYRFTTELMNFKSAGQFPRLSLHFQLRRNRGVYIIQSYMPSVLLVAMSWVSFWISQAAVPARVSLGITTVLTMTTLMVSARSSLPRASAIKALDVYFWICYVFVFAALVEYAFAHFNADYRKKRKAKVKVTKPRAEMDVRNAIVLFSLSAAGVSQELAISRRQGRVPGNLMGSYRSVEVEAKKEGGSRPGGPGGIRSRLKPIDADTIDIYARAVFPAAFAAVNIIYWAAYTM
T4 sequence (Q9D6F4 36-552): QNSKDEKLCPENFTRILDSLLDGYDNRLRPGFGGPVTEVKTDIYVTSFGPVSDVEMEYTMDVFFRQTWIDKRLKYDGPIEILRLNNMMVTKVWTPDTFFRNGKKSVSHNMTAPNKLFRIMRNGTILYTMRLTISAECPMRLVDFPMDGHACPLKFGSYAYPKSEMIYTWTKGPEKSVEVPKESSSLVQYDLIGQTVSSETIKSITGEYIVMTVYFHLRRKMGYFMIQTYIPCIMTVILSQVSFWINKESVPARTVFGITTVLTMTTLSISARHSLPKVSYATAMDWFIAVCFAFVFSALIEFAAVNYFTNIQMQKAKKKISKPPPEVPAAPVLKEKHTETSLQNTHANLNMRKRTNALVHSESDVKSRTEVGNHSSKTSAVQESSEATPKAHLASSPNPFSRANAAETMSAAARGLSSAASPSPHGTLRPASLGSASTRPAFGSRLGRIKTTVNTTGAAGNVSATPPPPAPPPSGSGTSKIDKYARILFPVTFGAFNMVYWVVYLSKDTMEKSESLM
T4 sequence (P63137 25-474 limits assumed): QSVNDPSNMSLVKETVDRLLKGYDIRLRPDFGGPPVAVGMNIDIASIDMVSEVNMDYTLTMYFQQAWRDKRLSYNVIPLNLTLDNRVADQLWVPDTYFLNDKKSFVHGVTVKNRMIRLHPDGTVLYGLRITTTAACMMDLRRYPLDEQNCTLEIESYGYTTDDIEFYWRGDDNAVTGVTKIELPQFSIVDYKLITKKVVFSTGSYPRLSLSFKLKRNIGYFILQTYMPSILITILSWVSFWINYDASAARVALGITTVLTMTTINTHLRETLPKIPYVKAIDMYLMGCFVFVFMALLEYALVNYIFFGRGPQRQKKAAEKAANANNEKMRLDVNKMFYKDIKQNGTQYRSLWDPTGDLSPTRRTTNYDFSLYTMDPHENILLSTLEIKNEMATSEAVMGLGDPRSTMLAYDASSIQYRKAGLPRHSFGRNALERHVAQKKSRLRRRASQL
Method: as §1, with “recordings. The cutting solution for field EPSP recordings contained: 230 mM sucrose, 26 mM NaHCO3, 20 mM glucose, 2.5 mM KCl, 1.25 mM NaH2PO4, 10 mM MgSO4, and 0.5 mM CaCl2. Both solutions were bubbled with 95% O2/5% CO2.” for “recordings.”
as §2

LTP in DG = assay: Long-term potentiation (LTP) in dentate gyrus, hippocampal slice field EPSP recordings; assay type: cell-based, mouse; conditions: 100 nM; 5xFAD dentate granule cells
Method: as §1, with “recordings. The cutting solution for field EPSP recordings contained: 230 mM sucrose, 26 mM NaHCO3, 20 mM glucose, 2.5 mM KCl, 1.25 mM NaH2PO4, 10 mM MgSO4, and 0.5 mM CaCl2. Both solutions were bubbled with 95% O2/5% CO2.” for “recordings.”
as §2

5xFAD mice = assay: Y-maze spontaneous alternation task; assay type: in vivo, mouse; conditions: 1 mg kg-1, i.p., once per day for one week, p<0.05
Method: L-655,708 was dissolved at 1 mg/mL in DMSO, and frozen in storage aliquots. The working solution was diluted 10 times in normal saline solution. […] The last injection was administrated 30 minutes before behavioral test.
Spontaneous alternation performance was tested as described elsewhere (Oakley et al., J. Neurosci., 26(40):10129-10140 (2006)). […] It allows the assessment of hippocampus-dependent spatial working memory. Each mouse was placed in the center of a symmetrical Y-maze and was allowed to explore freely through the maze during an 8 minute session. The first two minutes were not included for data analysis because mice were exploring new environment. The total number and the sequence of arm entries in the last 6 minutes were recorded and analyzed. Arm entry was defined as the hind paws of the mice had been completely placed in the arm. Analysis was done blind. The percentage of alternation is the number of triads containing entries into all three arms divided by the maximum possible alternations (the total number of arms entered minus 2)×100.
A behavioral analysis was conducted to test the effect of enhanced tonic inhibition on the cognitive function of 5xFAD animals. […] Therefore, it was concluded that the abnormal tonic inhibition in DG is an important contributing factor toward the learning and memory deficit in AD.

α5-GABAA-Rs = molecular target: T5, α5-GABAA-Rs (Mus musculus, UniProt P22723+Q8BHJ7); assay: Tonic current mediated by α5-GABAA-Rs, whole-cell patch clamp in hippocampal slices; assay type: cell-based
T5 construct: from tissue; host or cells: mouse hippocampal slices; dentate granule cells and CA1 pyramidal neurons
T5 sequence (P63080 26-473): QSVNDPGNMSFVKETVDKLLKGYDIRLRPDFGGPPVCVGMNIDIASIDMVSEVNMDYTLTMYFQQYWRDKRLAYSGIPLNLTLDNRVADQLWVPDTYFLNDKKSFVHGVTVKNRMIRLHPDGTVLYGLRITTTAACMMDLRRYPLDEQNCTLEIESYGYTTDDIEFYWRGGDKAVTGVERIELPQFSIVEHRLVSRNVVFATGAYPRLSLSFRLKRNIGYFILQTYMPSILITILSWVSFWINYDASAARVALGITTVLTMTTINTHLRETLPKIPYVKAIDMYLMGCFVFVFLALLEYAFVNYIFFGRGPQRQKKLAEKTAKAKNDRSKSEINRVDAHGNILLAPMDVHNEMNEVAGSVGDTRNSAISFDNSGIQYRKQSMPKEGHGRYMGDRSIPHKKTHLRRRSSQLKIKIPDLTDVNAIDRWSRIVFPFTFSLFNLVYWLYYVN
T5 sequence (Q8BHJ7 32-463): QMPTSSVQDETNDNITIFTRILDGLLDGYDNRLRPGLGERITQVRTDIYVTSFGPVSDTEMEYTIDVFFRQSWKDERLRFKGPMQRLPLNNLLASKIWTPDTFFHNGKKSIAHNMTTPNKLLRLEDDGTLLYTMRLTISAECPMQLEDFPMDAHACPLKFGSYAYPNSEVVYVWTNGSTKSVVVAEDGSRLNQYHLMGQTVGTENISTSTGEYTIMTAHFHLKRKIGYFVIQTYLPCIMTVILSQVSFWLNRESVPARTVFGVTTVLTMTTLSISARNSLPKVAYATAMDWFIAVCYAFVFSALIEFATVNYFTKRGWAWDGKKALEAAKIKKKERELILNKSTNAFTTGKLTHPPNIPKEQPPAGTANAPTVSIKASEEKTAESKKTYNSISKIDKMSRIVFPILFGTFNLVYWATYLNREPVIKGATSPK
T5 sequence (P22723 39-474): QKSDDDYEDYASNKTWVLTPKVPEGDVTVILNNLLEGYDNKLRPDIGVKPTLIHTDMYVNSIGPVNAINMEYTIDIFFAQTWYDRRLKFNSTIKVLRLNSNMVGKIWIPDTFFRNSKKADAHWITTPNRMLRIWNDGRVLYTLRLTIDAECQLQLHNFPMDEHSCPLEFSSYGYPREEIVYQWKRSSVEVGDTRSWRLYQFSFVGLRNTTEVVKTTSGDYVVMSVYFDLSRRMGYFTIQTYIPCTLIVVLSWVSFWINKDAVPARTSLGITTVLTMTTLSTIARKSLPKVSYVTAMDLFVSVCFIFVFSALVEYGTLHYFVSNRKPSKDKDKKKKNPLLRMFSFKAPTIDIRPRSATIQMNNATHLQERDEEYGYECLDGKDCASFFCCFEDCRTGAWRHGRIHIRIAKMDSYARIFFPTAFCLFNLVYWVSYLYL
Method: Mice were anesthetized with 2.5% Avertin. After decapitation, brains were rapidly dissected out and placed in ice-cold cutting solution containing: 79 mM NaCl, 80 mM sucrose, 26 mM NaHCO3, 10 mM glucose, 2.5 mM KCl, 1.25 mM NaH2PO4, 7 mM MgSO4, and 0.5 mM CaCl2 for tonic current recordings. The cutting solution for field EPSP recordings contained: 230 mM sucrose, 26 mM NaHCO3, 20 mM glucose, 2.5 mM KCl, 1.25 mM NaH2PO4, 10 mM MgSO4, and 0.5 mM CaCl2. Both solutions were bubbled with 95% O2/5% CO2. Hippocampal slices were cut at 350 μm with a vibratome (VT1200S, Leica, Germany) and transferred to a transitional chamber containing one half of cutting solution and one half of standard artificial cerebrospinal fluid (ACSF). The ACSF was composed of: 125.0 mM NaCl, 2.5 mM KCl, 1.3 mM MgSO4, 26.0 mM NaHCO3, 1.25 mM NaH2PO4, 2.0 mM CaCl2, and mM 10 glucose (290-300 mOsmol; gassed with 95% O2/5% CO2, pH ˜7.4). Slices were then incubated in ACSF at 32° C. for 30 minutes to recover. Subsequently, slices were maintained at room temperature for another 30 minutes before recording. Individual slices were then transferred to a submerged recording chamber where they were continuously perfused (2-3 mL/minute) with ACSF saturated by 95% O2/5% CO2 at 32° C.
Whole-cell voltage clamp recordings were performed on dentate gyrus granule cells using a pipette solution containing: 135 mM CsCl, 5 mM Na-phosphocreatine, 10 mM HEPES, 5 mM EGTA, 4 mM MgATP, 5 mM QX-314, and 0.5 mM Na2GTP (pH 7.3 adjusted with CsOH, 280-290 mOsm/L). Pipette resistance was 2-5 MΩ, and series resistance was typically 20-40 MΩ. To record tonic GABA current, 10 μM CNQX and 50 μM DL-APV were added into the ACSF to block glutamate receptors. In some experiments, 5 μM GABA also was added into the ACSF to reveal larger tonic GABA current and increase the signal-to-noise ratio. […] The membrane potential was held at −70 mV. Data was acquired using pClamp 9 software (Molecular Devices; sampled at 10 kHz and filtered at 1 kHz), and analyzed with Clampfit 9.0 software (Molecular Devices). Field excitatory postsynaptic potentials (fEPSPs) were recorded with glass electrodes filled with 1 M NaCl and 25 mM HEPES (pH 7.3), and were evoked every 20 seconds with a parallel bipolar tungsten electrode (MicroProbes, USA), which was placed at medial perforant path in the dentate gyrus. Three evoked responses were averaged to obtain a data point. […]
The following was performed to investigate which subtype of GABAA-Rs mediate the enhanced tonic GABA current in AD dentate granule cells. […] Quantitatively, the tonic current blocked by L-655,708 in AD dentate granule cells was more than doubled that in WT animals (FIG. 5, panel e; WT, 35.4±6.3 pA, n=12; AD, 98.7±12.9 pA, n=9; p<0.001). […]

Structure (SMILES): Cl.O=C(O)C1=CCCN(CCON=C(c2ccccc2)c2ccccc2)C1 [NO-711, 1-[2-[[(Diphenylmethylene)imino]oxy]ethyl]-1,2,5,6-tetrahydro-3-pyridinecarboxylic acid hydrochloride hydrochloride]
- tonic currents revealed by NO-711, WT vs. 5xFAD [1]: no difference

Structure (SMILES): COc1ccc(C2(O)CCN(CCCn3c4ccccc4c4ccccc43)CC2)cc1 [NNC 05-2045, 1-(3-(9H-carbazol-9-yl)-1-propyl)-4-(4-methoxyphenyl)-4-piperidinol]
- Ki (human GAT-1 polypeptide): > 20 µM
- Ki (human GAT-3 polypeptide): < 10 µM
- Ki (human GAT-2 polypeptide): > 10 µM

Structure (SMILES): Oc1noc2c1CCNC2 [THIP, 4,5,6,7-tetrahydroisoxazolo[5,4-c]pyridin-3-ol]
- THIP-induced tonic current (δ-GABAA-Rs; AD (5xFAD) dentate granule cells): 60.7±10.4 pA
- THIP-induced tonic current (δ-GABAA-Rs; WT dentate granule cells): 65.2±6.6 pA

Structure (SMILES): CCOC(=O)c1ncn2c1C1CCCN1C(=O)c1cc(OC)ccc1-2 [L-655,708, 11,12,13,13a-tetrahydro-7-methoxy-9-oxo-9H-imidazo[1,5-a]pyrrolo[2,1-c][1,4]benzodiaz-epine-1-carboxylic acid, ethyl ester]
- effect on LTP impairment (LTP in DG): rescued the LTP impairment
- effect on memory deficit (spontaneous alternation) (5xFAD mice): rescued the memory deficit
- block of tonic current (α5-GABAA-Rs; 100 nM, AD (5xFAD) dentate granule cells): majority of tonic current in AD dentate granule cells was blocked
- tonic current blocked by L-655,708 (α5-GABAA-Rs; AD (5xFAD) dentate granule cells, n=9): 98.7±12.9 pA
- proportion of tonic current blocked, WT vs AD (α5-GABAA-Rs; CA1 neurons): similar
- tonic current blocked by L-655,708 (α5-GABAA-Rs; WT dentate granule cells, n=12): 35.4±6.3 pA

Source: patent US10039756B2, “Reducing memory loss in mammals suffering from alzheimer's disease” (The Penn State Research Foundation, priority 2013, dated 2018)
